The record followed here is US20240238426A1, “PROTEIN ACYLATION MODULATION BY HETEROBIFUNCTIONAL MOLECULES” (THE SCRIPPS RESEARCH INSTITUTE, priority 2021, published 2024).

The target in test [1] is T1, FKBP12^F36V (Homo sapiens, UniProt P62942, F37V).
T1 construct: expressed in transfected cells; host or cells: HEK293T (transient)
Briefly: AceTAG-1 target engagement: FKBP-p photo-crosslinking probe competition in HEK293T cells. It is filed as cell-based. The following applies: 0.5 μM FKBP-p probe, increasing concentrations of AceTAG-1, 30 min, FIG. 3E. The method, then:
AceTAG-1 Target Engagement: At 50%-70% confluency, HEK293t cells in 6-well plates were transfected with pLEX305-C-dTAG-H3.3. After 24 h, cells were co-treated for 30 min with 0.5 μM FKBP-p probe and increasing concentration of AceTAG-1 in serum-free DMEM media. Cells then underwent UV-photocrosslinking (365 nm) for 20 min at 4° C., harvested in cold DPBS by scraping and centrifugation, cell pellets were washed with cold DPBS two times and aspirated. Cells were then lysed in 400 μL DPBS buffer supplemented with 0.2% SDS (w/v) and 1X Halt protease inhibitor cocktail. Lysate was then normalized to 1.5 mg/mL. […] Proteins (25 μg total protein loaded per gel lane) were resolved using SDS-PAGE (10% acrylamide) and visualized by in-gel fluorescence on Bio-Rad ChemiDoc MP Imaging System. Gel fluorescence and imaging was processed using Image Lab (v 6.0.1) software. […] Chemiluminescence was recorded with Bio-Rad ChemiDoc MP Imaging System and processed using Image Lab (v 6.0.1) software.

Test [2] deals with T2, FKBP12^F36V and the bromodomain of p300 (BRD-p300) (Homo sapiens, UniProt P62942+Q09472, F37V).
T2 construct: A construct containing residues 2-108 of FKBP12^F36V in pGEX4t-1 vector; the BRD domain of p300 (BRD-p300); purchased) 31372; host or cells: E. coli BL21(DE3) (GST-FKBP12^F36V)
Briefly: GST-FKBP12^F36V/His-P300-BRD AlphaScreen assay, ternary complex formation. It is filed as binding. The following applies: FIG. 3B. The method, then:
GST-FKBP12^F36V/His-P300-BRD AlphaScreen Assay: GST-FKBP12^F36V and 6xHis-p300-BRD (active motif #31372) were diluted to 250 nM and 500 nM, in assay buffer (50 mM HEPES pH 7.4, 200 mM NaCl, 1 mM TCEP, and 0.1% BSA), […] of protein mixture was added to each well of a 1/2 area 96-well OptiPlate (PerkinElmer). Compounds were then added from DMSO stock to protein mixture ([…]) with 1% DMSO in final mixture. Plates were then shaken orbitally at room temperature for 1 h. Nickel Chelate AlphaLISA Acceptor and Glutathione AlphaLISA Donor beads (PerkinElmer) diluted to 20 ng/ml in assay buffer and […] beads mixture was added to each well. After a 1 h orbital shaking at room temperature. luminescence was measured on the Envision 2104 plate reader (PerkinElmer). Data were plotted and analyzed using GraphPad PRISM v8 and fit with ‘Bell-shaped’ dose response curve.
A general note: In Alpha technology, singlet oxygen from a donor bead excites a nearby acceptor bead.

The subject of test [3] is p21. Briefly: qPCR analysis of p21 mRNA level in FKBP12^F36V-p53 H1299 cells. The note with it: indicated doses, 8 hr, FIG. 7C. It is filed as cell-based, Human. For orientation: In qPCR the cycle at which signal appears reflects the starting amount.
Test [4] concerns p300/CBP substrates, including c-Myc and STAT3. Briefly: Immunoblot of acetylation of other p300/CBP substrates in HeLa cells. The test is classed as cell-based, Human. The note with it: increasing concentration. The protocol: (§1) Immunoblotting: Cells were harvested in cold DPBS by scraping and washed with cold DPBS twice. Cell pellets were resuspended in DPBS supplemented with 5 mM sodium butyrate, 20 mM Nicotinamide, and 1X Halt Protease Inhibitor Cocktail and lysed by sonication (15 ms on, 40 ms off, 15% amplitude, 1s total on x 3). Protein concentration was determined using DC Protein Assay (Bio-Rad) and absorbance read using a CLARIOstar plate reader following manufacturer's instructions. Samples with equal protein content were boiled in 4X SDS gel loading buffer for 10 min. Proteins were separated by 10%, 12.5%, or 15% SDS-polyacrylamide gel electrophoresis and transferred to PVDF membranes using Trans-Blot Turbo RTA Mini […] LF PVDF Transfer Kit (Bio-Rad). Membranes were incubated for 1 h at room temperature with blocking buffer, followed by incubating overnight at 4° C. with primary antibodies. After washing in TBST, the secondary antibodies were incubated with the membranes at room temperature for 1 h. The membranes were washed with TBST for three times and visualized on a Bio-Rad ChemiDoc MP Imaging System with Clarity Max Western ECL substrate (Bio-Rad) or SuperSignal West Femto Chemiluminescent substrate proprietary luminol and peroxide solution kit (Thermo Scientific Pierce).
On the technique in general: A western blot detects proteins with antibodies after separation by electrophoresis.

The subject of test [5] is T3, FKBP12^F36V-RelA (Homo sapiens, F37V).
T3 construct: expressed in transfected cells
Briefly: Immunoblot analysis of FKBP12^F36V-RelA acetylation in RelA-/- HeLa cells. The test is classed as cell-based. The method, then:
(§2) Lentivirus Production and Transduction: Lentiviral production was performed using HEK293T cells, which were co-transfected with pMD2.G (Addgene, #12259), psPAX2 (Addgene, #12260), and AceTAG lentiviral plasmids using PEI (Polysciences Inc). Viral particles were collected 72 h after transfection and filtered through a […] membrane. A range of dilutions of the lentivirus in DMEM complete and 10 μg/mL polybrene were added to HeLa, H1299, or HeLa RelA KO cell lines. Transduced cells were selected with 1 μg/mL or 2 μg/mL puromycin.
as §1

For test [6], the system named is T4, FKBP12^F36V-p53 (Homo sapiens, F37V).
T4 construct: expressed in transfected cells
Briefly: Immunoblot analysis of FKBP12^F36V-p53 acetylation in H1299 cells. It is filed as cell-based. The method, then:
as §2, §1

T4 sequence (P62942 2-108 F37V limits assumed): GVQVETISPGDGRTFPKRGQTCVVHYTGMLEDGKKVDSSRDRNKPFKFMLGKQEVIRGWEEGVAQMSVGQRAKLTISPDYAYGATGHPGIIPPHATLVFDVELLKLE
T4 sequence (Q09472 2-2414 limits assumed, stated change not applied, further chain): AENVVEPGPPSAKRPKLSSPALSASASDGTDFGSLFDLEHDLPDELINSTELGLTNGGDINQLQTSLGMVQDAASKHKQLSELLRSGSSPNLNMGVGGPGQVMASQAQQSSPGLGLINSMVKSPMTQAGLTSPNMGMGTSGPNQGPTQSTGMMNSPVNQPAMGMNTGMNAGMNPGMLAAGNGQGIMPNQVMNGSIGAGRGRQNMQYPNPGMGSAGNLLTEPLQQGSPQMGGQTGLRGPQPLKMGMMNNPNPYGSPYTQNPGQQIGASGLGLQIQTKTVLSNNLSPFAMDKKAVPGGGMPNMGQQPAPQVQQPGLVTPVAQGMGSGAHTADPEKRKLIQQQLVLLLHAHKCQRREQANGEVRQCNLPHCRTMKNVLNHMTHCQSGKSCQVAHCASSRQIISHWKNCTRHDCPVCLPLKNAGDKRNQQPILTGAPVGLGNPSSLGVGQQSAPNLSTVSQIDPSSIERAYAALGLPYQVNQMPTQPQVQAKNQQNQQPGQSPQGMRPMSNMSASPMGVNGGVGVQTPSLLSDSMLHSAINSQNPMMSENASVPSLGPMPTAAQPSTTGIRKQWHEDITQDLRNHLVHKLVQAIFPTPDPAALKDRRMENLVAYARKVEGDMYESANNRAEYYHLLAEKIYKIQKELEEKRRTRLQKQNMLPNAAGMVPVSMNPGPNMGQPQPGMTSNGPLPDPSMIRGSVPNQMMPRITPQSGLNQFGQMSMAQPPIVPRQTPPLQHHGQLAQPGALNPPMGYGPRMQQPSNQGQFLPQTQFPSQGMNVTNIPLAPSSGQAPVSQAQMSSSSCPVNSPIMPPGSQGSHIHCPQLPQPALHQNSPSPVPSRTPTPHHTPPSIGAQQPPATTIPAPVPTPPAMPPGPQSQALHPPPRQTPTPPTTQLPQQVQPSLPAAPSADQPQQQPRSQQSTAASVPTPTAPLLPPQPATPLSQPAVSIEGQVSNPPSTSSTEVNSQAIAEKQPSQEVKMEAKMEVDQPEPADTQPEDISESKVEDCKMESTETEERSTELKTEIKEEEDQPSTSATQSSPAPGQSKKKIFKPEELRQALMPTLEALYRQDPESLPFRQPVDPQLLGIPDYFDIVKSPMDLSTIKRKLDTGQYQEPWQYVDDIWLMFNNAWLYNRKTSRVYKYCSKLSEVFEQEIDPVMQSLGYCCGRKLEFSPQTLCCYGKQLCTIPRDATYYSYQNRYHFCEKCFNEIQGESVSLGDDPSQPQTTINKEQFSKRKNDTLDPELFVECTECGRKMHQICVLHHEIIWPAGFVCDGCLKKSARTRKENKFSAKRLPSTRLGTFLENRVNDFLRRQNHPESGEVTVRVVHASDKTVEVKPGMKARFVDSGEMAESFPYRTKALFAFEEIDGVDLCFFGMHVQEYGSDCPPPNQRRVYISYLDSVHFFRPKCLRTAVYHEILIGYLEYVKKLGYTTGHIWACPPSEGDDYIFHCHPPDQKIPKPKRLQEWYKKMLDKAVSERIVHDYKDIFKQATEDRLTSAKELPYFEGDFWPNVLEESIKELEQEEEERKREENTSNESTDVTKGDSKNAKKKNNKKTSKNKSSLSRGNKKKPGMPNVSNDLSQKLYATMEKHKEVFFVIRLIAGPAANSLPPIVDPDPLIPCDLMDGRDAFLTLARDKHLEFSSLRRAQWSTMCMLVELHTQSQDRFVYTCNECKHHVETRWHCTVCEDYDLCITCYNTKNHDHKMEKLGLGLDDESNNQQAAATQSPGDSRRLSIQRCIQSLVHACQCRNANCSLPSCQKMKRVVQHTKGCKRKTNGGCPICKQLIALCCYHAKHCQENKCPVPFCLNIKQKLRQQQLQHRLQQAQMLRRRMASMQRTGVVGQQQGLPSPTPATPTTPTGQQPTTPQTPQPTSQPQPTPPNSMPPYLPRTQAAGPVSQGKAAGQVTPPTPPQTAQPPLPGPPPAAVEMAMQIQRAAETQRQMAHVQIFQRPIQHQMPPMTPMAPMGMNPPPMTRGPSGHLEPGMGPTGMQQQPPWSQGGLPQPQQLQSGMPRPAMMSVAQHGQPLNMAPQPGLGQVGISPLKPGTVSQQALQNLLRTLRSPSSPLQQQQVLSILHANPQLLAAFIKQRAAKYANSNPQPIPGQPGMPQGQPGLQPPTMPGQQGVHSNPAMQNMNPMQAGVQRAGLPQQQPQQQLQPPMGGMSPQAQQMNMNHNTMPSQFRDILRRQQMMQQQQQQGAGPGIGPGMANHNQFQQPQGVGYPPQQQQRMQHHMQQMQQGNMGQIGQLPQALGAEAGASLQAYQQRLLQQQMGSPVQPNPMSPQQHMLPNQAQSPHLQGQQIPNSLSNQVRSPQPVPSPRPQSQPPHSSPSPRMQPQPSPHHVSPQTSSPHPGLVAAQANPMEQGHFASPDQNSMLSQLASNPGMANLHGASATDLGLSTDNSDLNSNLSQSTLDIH
T3 sequence (P62942 2-108 F37V limits assumed): as the sequence (P62942 2-108 F37V limits assumed) above
T3 sequence (Q09472 2-2414 limits assumed, stated change not applied, further chain): as the sequence (Q09472 2-2414 limits assumed, stated change not applied, further chain) above
T2 sequence (P62942 2-108 F37V): as the sequence (P62942 2-108 F37V limits assumed) above
T2 sequence (Q09472 1049-1156): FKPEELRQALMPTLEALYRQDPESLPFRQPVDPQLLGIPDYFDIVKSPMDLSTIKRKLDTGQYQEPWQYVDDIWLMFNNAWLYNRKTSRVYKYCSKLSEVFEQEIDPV
T1 sequence (P62942 2-108 F37V limits assumed): as the sequence (P62942 2-108 F37V limits assumed) above

In the case of `CC[C@H](C(=O)N1CCCC[C@H]1C(=O)O[C@H](CCc1ccc(OC)c(OC)c1)c1cccc(OCC(=O)NCCOCCOCCC(=O)NCCOc2ccc(CCc3nc4cc(-c5c(C)noc5C)ccc4n3CCN3CCOCC3)cc2)c1)c1cc(OC)c(OC)c(OC)c1` [AceTAG-1, (R)-3-(3,4-dimethoxyphenyl)-1-(3-((15-(4-(2-(5-(3,5-dimethylisoxazol-4-yl)-1-(2-morpholinoethyl)-1H-benzo[d]imidazol-2-yl)ethyl)phenoxy)-2,12-dioxo-6,9-dioxa-3,13-diazapentadecyl)oxy)phenyl)propyl (S)-1-((S)-2-(3,4,5-trimethoxyphenyl)butanoyl)piperidine-2-carboxylate], the “competition of FKBP-p probe binding to FKBP12^F36V” value in test [1] was “efficiently competed”. The “concentration of maximum complex formation” value in test [2] (FKBP12^F36V and BRD-p300, AlphaScreen) was roughly 1 µM. Further, the “AceTAG-mediated ternary complex formation (AlphaScreen curve)” value in test [2] (bell-shaped dose response fit) was “increased potence relative to other analogues”. The “transcription of p21 (mRNA, qPCR)” value in test [3] was “confirmed”. In addition, the “acetylation of c-Myc and STAT3” value in test [4] (FIG. 5B) is “no observable acetylation changes”. The “broader acetylation perturbation (acetylated lysine immunoblot)” value in test [4] (FIG. 5C) was “no observable acetylation changes”. Also, the “RelA acetylation at higher AceTAG-1 concentrations” value in test [5] (FIG. 6A) was “apparent acetylation autoinhibition”. Besides, the “RelA acetylation at neighboring K314/315” value in test [5] (FIG. 9D) is “minimal effects”. Besides, the “RelA acetylation at K310” value in test [5] (indicated doses, 2 hr, FIG. 6A) is on record as “dose-dependent acetylation”. For the same compound, the “p53 acetylation at higher AceTAG-1 concentrations” value in test [6] (FIG. 6C) is “apparent acetylation autoinhibition”. Besides, the “treatment time after which a significant level of p53 acetylation is detectable” value in test [6] (FIG. 9E) is given as roughly 10 min. In addition, the “p53 acetylation at K305, K373, and K382” value in test [6] (indicated doses, 2 hr, FIG. 6C) is reported as “strong AceTAG-1-dependent acetylation”.
